# Results from patent publication US20210353683A1, “ADDITIVE FOR MEDIUM FOR PROMOTING PRODUCTION OF PARACRINE FACTOR” (NISSAN CHEMICAL CORPORATION, priority 2018, published 2021).
# Tests used:
# Type in all cases: cell-based
# [1] = test system: Human bone marrow-derived mesenchymal stem cells (hMSC); test: Paracrine factor release amount test 1: Angiogenin (ANG) in culture supernatant by ELISA; details: 5 μM for 48 hr, then 48 hr in compound-free medium, relative to 2D DMSO control
# Protocol: (§1) Human bone marrow-derived mesenchymal stem cells (hMSC, manufactured by PromoCell) were precultured by a single layer culture method (2D) using Mesenchymal Stem Cell Growth Medium 2 (manufactured by PromoCell). hMSCs were suspended in the same medium. In three-dimensional culture method (3D), hMSCs were seeded at 5×10^5 cells/2 mL/well on a cell-non-adhesive 6-well EZSPHERE plate (manufactured by AGC TECHNO GLASS, #4810-900) having a depression on the bottom surface. In 2D, hMSCs were seeded on a 6-well flat bottom plate (manufactured by Corning Incorporated, #3516) at 5×10^5 cells/2 Continuously, compounds k-1:B-1, k-1:D-1, k-1:J-1 dissolved in DMSO were added at 2 μL/well to a final concentration of 5 μM, and the mixture was cultured in an incubator at 37° C., 5% CO2 for 48 hr. As a control, DMSO was added at a final concentration of 0.05%. After 48 hr, the medium was exchanged with a medium not containing the compound, and the cells were cultured in an incubator at 37° C., 5% CO2. After 48 hr, the culture supernatant was recovered. The number of cells at the time of recovery of the culture supernatant was measured by dispersing the cells in single cells using Detach Kit (manufactured by PromoCell), suspending a part thereof in Trypan Blue (manufactured by Wako Pure Chemical Industries, Ltd.) and counting the number of viable cells using TC-20 (manufactured by BIO-RAD).
# Angiogenin (ANG), a cytokine which is one kind of paracrine factor contained in the culture supernatant, was quantified using a plate reader. For the quantification, Human Angiogenin ELISA Kit (manufactured by Abcam, #ab99970) was used.
# The concentration of ANG in the culture supernatant was normalized by the cell count, and the relative values for the control group cultured in 2D are shown in Table 4. As a result, the secretion amount increased in both 2D culture and 3D culture by adding compounds k-1:B-1, k-1:D-1, and compound k-1:J-1. Therefrom it was clarified that the secretion of the paracrine factor can be promoted by adding the compounds k-1:B-1, k-1:D-1, and compound k-1:J-1 to the mesenchymal stem cells.
# [2] = test system: Human bone marrow-derived mesenchymal stem cells (hMSC); test: Paracrine factor release amount test 3: VEGF in culture supernatant by ELISA; details: 5 μM for 48 hr, then 48 hr in compound-free medium, relative to 2D DMSO control
# Protocol: as §1, with “5×10^5 cells/2 mL/well. Continuously, compounds” for “5×10^5 cells/2 Continuously, compounds”
# Vascular endothelial growth factor (VEGF), a cytokine which is one kind of paracrine factor contained in the culture supernatant, was quantified using a plate reader. For the quantification, Human VEGF ELISA Kit (manufactured by Abcam, #ab100662) was used.
# The concentration of VEGF in the culture supernatant was normalized by the cell count, and the relative values for the control group cultured in 2D are shown in Table 7. As a result, the secretion amount increased in both 2D culture and 3D culture by adding compounds k-1:B-1, k-1:D-1, and compound k-1:J-1. Therefrom it was clarified that the secretion of the paracrine factor can be promoted by adding the compounds k-1:B-1, k-1:D-1, and compound k-1:J-1 to the mesenchymal stem cells.
# [3] = test system: Human bone marrow-derived mesenchymal stem cells (hMSC); test: Paracrine factor release amount test 2: Stanniocalcin-1 (STC-1) in culture supernatant by ELISA; details: 5 μM for 48 hr, then 48 hr in compound-free medium, relative to 2D DMSO control
# Protocol: (§2) Human bone marrow-derived mesenchymal stem cells (hMSC, manufactured by PromoCell) were precultured by a single layer culture method (2D) using Mesenchymal Stem Cell Growth Medium 2 (manufactured by PromoCell). hMSCs were suspended in the same medium. In three-dimensional culture method (3D), hMSCs were seeded at 5×10^5 cells/2 mL/well on a cell-non-adhesive 6-well EZSPHERE plate (manufactured by AGC TECHNO GLASS, #4810-900) having a depression on the bottom surface. In 2D, hMSCs were seeded on a 6-well flat bottom plate (manufactured by Corning Incorporated, #3516) at 5×10^5 cells/2 mL/well. Continuously, compound k-1:B-1 dissolved in DMSO was added at 2 μL/well to a final concentration of 5 μM, and the mixture was cultured in an incubator at 37° C., 5% CO2 for 48 hr. […] The number of cells at the time of recovery of the culture supernatant was measured by dispersing the cells in single cells using Detach Kit (manufactured by PromoCell), suspending a part thereof in Trypan Blue (manufactured by Wako Pure Chemical Industries, Ltd.) and counting the number of viable cells using TC-20 (manufactured by BIO-RAD).
# Stanniocalcin-1 (STC-1), a cytokine which is one kind of paracrine factor contained in the culture supernatant, was quantified using a plate reader. For the quantification, Human Stanniocalcin ELISA Kit (manufactured by Abcam, #ab213829) was used. […]
# [4] = test system: Human bone marrow-derived mesenchymal stem cells (hMSC); test: Paracrine factor release under inflammation stimulation (TNFα): TSG-6 in culture supernatant by ELISA; details: 5 μM for 48 hr, then 48 hr with 10 ng/mL TNFα only, relative to 2D DMSO control
# Protocol: as §2, with “k-1:J-1” for “k-1:B-1”, “hr. As a control, DMSO was added at a final concentration of 0.05%.” for “hr.”
# Tumor necrosis factor-inducible gene 6 protein (TSG-6), a cytokine which is one kind of paracrine factor contained in the culture supernatant, was quantified using a plate reader. […]
# [5] = test system: Human bone marrow-derived mesenchymal stem cells (hMSC); test: Paracrine factor release under inflammation stimulation (TNFα): MCP-1 in culture supernatant by flow cytometer; details: 5 μM for 48 hr, then 48 hr with 10 ng/mL TNFα only, relative to 2D DMSO control
# Protocol: as §2, with “mL/well.” for “mL/well. Continuously, compound k-1:B-1 dissolved in DMSO was added at 2 μL/well to a final concentration of 5 μM, and the mixture was cultured in an incubator at 37° C., 5% CO2 for 48 hr.”
# Monocyte Chemotactic Protein-1 (MCP-1), a cytokine which is one kind of paracrine factor contained in the culture supernatant, was quantified using a flow cytometer. The quantification analysis was performed using BD™ CBA Flex Set (manufactured by BD 558287) according to the protocol of BD. […]
SMILES,"ANG, relative value of secretion amount (pg) per 10000 cells ([1]; 2D culture)","ANG, relative value of secretion amount (pg) per 10000 cells ([1]; 3D culture)","VEGF, relative value of secretion amount (pg) per 10000 cells ([2]; 2D culture)","VEGF, relative value of secretion amount (pg) per 10000 cells ([2]; 3D culture)","STC-1, relative value of secretion amount (pg) per 10000 cells ([3]; 2D culture)","STC-1, relative value of secretion amount (pg) per 10000 cells ([3]; 3D culture)","TSG-6, relative value of secretion amount (pg) per 10000 cells ([4]; 2D culture)","TSG-6, relative value of secretion amount (pg) per 10000 cells ([4]; 3D culture)","MCP-1, relative value of secretion amount (pg) per 10000 cells ([5]; 2D culture)","MCP-1, relative value of secretion amount (pg) per 10000 cells ([5]; 3D culture)"
CCC(=NNC(=O)C(C)Nc1ccccc1)c1ccc(O)c(C)c1O (racemic) [k-1:B-1],1.34,1.38,4.40,3.59,2.67,8.95,–,–,–,–
CCC(=NNC(=O)CNc1cccc(O)c1)c1ccc(O)c(C)c1O [k-1:D-1],–,1.50,–,3.27,–,–,–,–,–,–
CCC(=NNC(=O)NCc1cccc(O)c1)c1ccc(O)c(C)c1O [k-1:J-1],–,1.38,–,6.18,–,–,1.56,3.21,0.85,1.41
